Data taken from US10138252B1, “Lactones” (Purdue Research Foundation, priority 2017, dated 2018).
In brackets after ≈: the same amount, converted by molar mass.

How the values were obtained:
[1] = Antifungal broth microdilution MIC assay; details: read-out: minimum inhibitory concentrations
[2] = test system: Clostridium difficile; assay: Broth microdilution MIC against C. difficile strains; details: Clostridioides difficile, BAA1870, 48 h, read-out: minimum inhibitory concentrations (MIC)

| SMILES | MIC [1] [µM] | MIC [2] [µM] |
| --- | --- | --- |
| Cc1ccc(S(=O)(=O)N2CCC3=C2C(c2cccc(Br)c2)OC3=O)cc1 (stereo not drawn) [Example 8, 6-(3-bromophenyl)-1-tosyl-1,2,3,6-tetrahydro-4H-furo[3,4-b]pyrrol-4-one] | 64 to 128 (≈ 27.8 to 55.6 µg/mL) | 64 to 128 (≈ 27.8 to 55.6 µg/mL) |
| Cc1ccc(S(=O)(=O)N2CCC3=C2COC3=O)cc1 [Example 11, 1-tosyl-1,2,3,6-tetrahydro-4H-furo[3,4-b]pyrrol-4-one] | 64 to 128 (≈ 17.9 to 35.8 µg/mL) | – |
| Cc1ccc(S(=O)(=O)N2CCC3=C2C2(COC2)OC3=O)cc1 [Example 19, 1-tosyl-2,3-dihydrospiro[furo[3,4-b]pyrrole-6,3′-oxetan]-4(1H)-one] | 64 to 128 (≈ 20.6 to 41.1 µg/mL) | 64 to 128 (≈ 20.6 to 41.1 µg/mL) |
| CCCC1OC(=O)/C1=C1\CCCN1S(=O)(=O)c1ccc(C)cc1 (stereo not drawn) [Example 22, (E)-4-propyl-3-(1-tosylpyrrolidin-2-ylidene)oxetan-2-one] | 64 to 128 (≈ 21.5 to 42.9 µg/mL) | – |
